From PubChem BioAssay AID248 (DTP/NCI, 2004)
Several values for one entry are separate records, joined by “and”; a condition that tells them apart may be missing. Equal entries are not always repeated. Toxic doses and inconclusive results are not listed.

Tested on: L1210 leukemia ip in BDF1 mice, survival T/C
Assay: NCI In Vivo Anticancer Drug Screen. Data for tumor model L1210 Leukemia (intraperitoneal) in B6D2F1 (BDF1) mice
Details: endpoint: mean survival time, higher = longer survival
How it was run: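 In this screen, tumor-bearing mice given compound are compared to those given vehicle, and their survival values are reported as a treated-to-control quotient.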

[1] = dose: 100.0 mg/kg/injection, schedule: Q01DX009 (ip), vehicle: Klucel (hydroxypropylcellulose) (HPC)
[2] = dose: 100.0 mg/kg/injection, schedule: Q04DX003 (ip), vehicle: Klucel (hydroxypropylcellulose) (HPC)
[3] = dose: 200.0 mg/kg/injection, schedule: Q04DX003 (ip), vehicle: Klucel (hydroxypropylcellulose) (HPC)
[4] = dose: 400.0 mg/kg/injection, schedule: Q04DX003 (ip), vehicle: Klucel (hydroxypropylcellulose) (HPC)
[5] = dose: 100.0 mg/kg/injection, schedule: Q01DX001 (ip), vehicle: saline
[6] = dose: 200.0 mg/kg/injection, schedule: Q01DX001 (ip), vehicle: saline
[7] = dose: 400.0 mg/kg/injection, schedule: Q01DX001 (ip), vehicle: saline
[8] = dose: 100.0 mg/kg/injection, schedule: Q04DX002 (ip), vehicle: Klucel (hydroxypropylcellulose) (HPC)
[9] = dose: 200.0 mg/kg/injection, schedule: Q04DX002 (ip), vehicle: Klucel (hydroxypropylcellulose) (HPC)
[10] = dose: 400.0 mg/kg/injection, schedule: Q04DX002 (ip), vehicle: Klucel (hydroxypropylcellulose) (HPC)

Compound: COc1cccc2c1C(=O)c1c(O)c3c(c(O)c1C2=O)C[C@@](O)(/C(C)=N/NS(C)(=O)=O)C[C@@H]3OC1CC(N)C(O)C(C)O1 (stereo partly specified)
- T/C (dose: 0.25 mg/kg/injection, schedule: Q04DX003 (ip), vehicle: water): 103 % of control
- T/C (dose: 0.5 mg/kg/injection, schedule: Q04DX003 (ip), vehicle: water): 103 % of control
- T/C (dose: 1.0 mg/kg/injection, schedule: Q04DX003 (ip), vehicle: water): 103 % of control
- T/C (dose: 2.0 mg/kg/injection, schedule: Q04DX003 (ip), vehicle: water): 105 % of control
- T/C (dose: 4.0 mg/kg/injection, schedule: Q01DX009 (ip), vehicle: water): 105 % of control
- T/C (dose: 4.0 mg/kg/injection, schedule: Q04DX003 (ip), vehicle: water): 107 % of control
- T/C (dose: 8.0 mg/kg/injection, schedule: Q01DX009 (ip), vehicle: water): 113 % of control
- T/C (dose: 8.0 mg/kg/injection, schedule: Q04DX003 (ip), vehicle: water): 101 % of control and 113 % of control
- T/C (dose: 16.0 mg/kg/injection, schedule: Q01DX009 (ip), vehicle: water): 121 % of control
- T/C (dose: 16.0 mg/kg/injection, schedule: Q04DX003 (ip), vehicle: water): 104 % of control and 115 % of control
- T/C (dose: 64.0 mg/kg/injection, schedule: Q01DX009 (ip), vehicle: water): 97 % of control

Compound: CC(C)(C)OC(=O)NC(CC(=O)OCc1ccccc1)C(=O)O (stereo unspecified)
- T/C [1]: 87 % of control
- T/C [2]: 93 % of control
- T/C [3]: 95 % of control
- T/C [4]: 106 % of control

Compound: CCC(C)c1nc2c([nH]1)c(=O)n(C)c(=O)n2C (stereo unspecified)
- T/C (dose: 50.0 mg/kg/injection, schedule: Q01DX001 (ip), vehicle: saline): 110 % of control
- T/C [5]: 101 % of control
- T/C [6]: 101 % of control
- T/C [7]: 104 % of control

Compound: N#CSCc1ccc(CSC#N)c(Cl)c1
- T/C (dose: 1.56 mg/kg/injection, schedule: Q01DX009 (ip), vehicle: saline sonified): 97 % of control
- T/C (dose: 1.56 mg/kg/injection, schedule: Q04DX003 (ip), vehicle: saline with Tween-80): 101 % of control
- T/C (dose: 3.13 mg/kg/injection, schedule: Q01DX009 (ip), vehicle: saline sonified): 109 % of control
- T/C (dose: 3.13 mg/kg/injection, schedule: Q04DX003 (ip), vehicle: saline with Tween-80): 109 % of control
- T/C (dose: 6.25 mg/kg/injection, schedule: Q01DX009 (ip), vehicle: saline sonified): 111 % of control
- T/C (dose: 6.25 mg/kg/injection, schedule: Q04DX003 (ip), vehicle: saline with Tween-80): 109 % of control

Compound: CC(C)NNC(=O)c1ccc(Cl)cc1
- T/C (dose: 25.0 mg/kg/injection, schedule: Q01DX009 (ip), vehicle: Klucel (hydroxypropylcellulose) (HPC)): 92 % of control
- T/C (dose: 25.0 mg/kg/injection, schedule: Q04DX003 (ip), vehicle: Klucel (hydroxypropylcellulose) (HPC)): 96 % of control
- T/C (dose: 50.0 mg/kg/injection, schedule: Q01DX009 (ip), vehicle: Klucel (hydroxypropylcellulose) (HPC)): 93 % of control
- T/C (dose: 50.0 mg/kg/injection, schedule: Q04DX003 (ip), vehicle: Klucel (hydroxypropylcellulose) (HPC)): 89 % of control
- T/C [1]: 103 % of control
- T/C (dose: 100.0 mg/kg/injection, schedule: Q01DX009 (ip), vehicle: saline with Tween-80): 88 % of control
- T/C [2]: 94 % of control
- T/C (dose: 200.0 mg/kg/injection, schedule: Q01DX009 (ip), vehicle: saline with Tween-80): 98 % of control
- T/C [3]: 86 % of control
- T/C (dose: 400.0 mg/kg/injection, schedule: Q01DX009 (ip), vehicle: saline with Tween-80): 90 % of control
- T/C [4]: 102 % of control

Compound: Cc1c2cnccc2c(C)c2c1c1ccccc1n2CCCl
- T/C (dose: 31.25 mg/kg/injection, schedule: Q01DX009 (ip), vehicle: saline with Tween-80): 106 % of control
- T/C (dose: 37.5 mg/kg/injection, schedule: Q04DX003 (ip), vehicle: saline): 93 % of control
- T/C (dose: 62.5 mg/kg/injection, schedule: Q01DX009 (ip), vehicle: saline with Tween-80): 109 % of control
- T/C (dose: 75.0 mg/kg/injection, schedule: Q04DX003 (ip), vehicle: saline): 97 % of control
- T/C (dose: 150.0 mg/kg/injection, schedule: Q04DX003 (ip), vehicle: saline): 98 % of control
- T/C (dose: 300.0 mg/kg/injection, schedule: Q04DX003 (ip), vehicle: saline): 100 % of control

Compound: O=S(=O)(c1ccccc1)c1nn2nnnc2c2ccccc12
- T/C (dose: 50.0 mg/kg/injection, schedule: Q04DX003 (ip), vehicle: saline with Tween-80): 107 % of control
- T/C (dose: 100.0 mg/kg/injection, schedule: Q04DX003 (ip), vehicle: saline with Tween-80): 104 % of control
- T/C (dose: 200.0 mg/kg/injection, schedule: Q04DX003 (ip), vehicle: saline with Tween-80): 103 % of control

Compound: O=C(Sc1ccccc1)n1nc(Cl)c2ccc([N+](=O)[O-])cc21
- T/C [5]: 94 % of control
- T/C [6]: 94 % of control
- T/C [7]: 90 % of control

Compound: COc1cccc2c1C(=O)c1c(O)c3c(c(O)c1C2=O)C[C@@](O)(C(=O)COC(=O)c1ccccc1)C[C@@H]3OC1CC(N)C(O)C(C)O1 (stereo partly specified)
- T/C (dose: 0.5 mg/kg/injection, schedule: Q04DX003 (ip), vehicle: Klucel (hydroxypropylcellulose) (HPC)): 117 % of control
- T/C (dose: 0.8 mg/kg/injection, schedule: Q04DX003 (ip), vehicle: Klucel (hydroxypropylcellulose) (HPC)): 118 % of control
- T/C (dose: 4.4 mg/kg/injection, schedule: Q04DX003 (ip), vehicle: Klucel (hydroxypropylcellulose) (HPC)): 152 % of control
- T/C (dose: 6.8 mg/kg/injection, schedule: Q04DX003 (ip), vehicle: Klucel (hydroxypropylcellulose) (HPC)): 165 % of control
- T/C (dose: 10.0 mg/kg/injection, schedule: Q04DX003 (ip), vehicle: Klucel (hydroxypropylcellulose) (HPC)): 172 % of control

Compound: N#CCCCSC(=N)N
- T/C [5]: 106 % of control
- T/C [6]: 104 % of control

Compound: O=c1ccc2ccccc2o1
- T/C (dose: 45.0 mg/kg/injection, schedule: Q01DX Z (ip), vehicle: carboxymethylcellulose (CMC)): 114 % of control
- T/C (dose: 65.0 mg/kg/injection, schedule: Q01DX Z (ip), vehicle: carboxymethylcellulose (CMC)): 94 % of control
- T/C (dose: 95.0 mg/kg/injection, schedule: Q01DX Z (ip), vehicle: carboxymethylcellulose (CMC)): 102 % of control
- T/C (dose: 100.0 mg/kg/injection, schedule: Q01DX001 (ip), vehicle: other): 100 % of control
- T/C (dose: 110.0 mg/kg/injection, schedule: Q01DX Z (ip), vehicle: carboxymethylcellulose (CMC)): 102 % of control and 105 % of control
- T/C (dose: 165.0 mg/kg/injection, schedule: Q01DX Z (ip), vehicle: carboxymethylcellulose (CMC)): 97 % of control
- T/C (dose: 200.0 mg/kg/injection, schedule: Q01DX001 (ip), vehicle: other): 105 % of control

Compound: Cc1cc(O)cc(C)c1C1=NCC(C)S1 (stereo unspecified)
- T/C [8]: 104 % of control
- T/C [9]: 90 % of control
- T/C [10]: 90 % of control

Compound: CC12CCC3C(C1)C(C(=O)O2)C(=O)OC3(C)C (stereo unspecified)
- T/C (dose: 75.0 mg/kg/injection, schedule: Q01DX009 (ip), vehicle: Klucel (hydroxypropylcellulose) (HPC)): 99 % of control
- T/C (dose: 150.0 mg/kg/injection, schedule: Q01DX009 (ip), vehicle: Klucel (hydroxypropylcellulose) (HPC)): 101 % of control

Compound: O=S(=O)(O)c1ccc(S)cc1
- T/C (dose: 75.0 mg/kg/injection, schedule: Q01DX001 (ip), vehicle: other): 117 % of control

Compound: O=C(O)C(O)C(O)C(O)C(O)C(O)CO.[Cu+2] (stereo unspecified)
- T/C (dose: 30.0 mg/kg/injection, schedule: Q01DX001 (ip), vehicle: saline): 91 % of control

Compound: O=C(O)COc1ccc(C(=O)O)cc1
- T/C [8]: 111 % of control
- T/C [9]: 97 % of control
- T/C [10]: 101 % of control

Compound: C=C(Cl)CN1C(=O)c2ccccc2C1=O
- T/C [8]: 93 % of control
- T/C [9]: 93 % of control
- T/C [10]: 101 % of control

Compound: O=S1OCC2(CO1)COS(=O)OC2 (stereo unspecified)
- T/C (dose: 1.56 mg/kg/injection, schedule: Q01DX009 (ip), vehicle: saline): 103 % of control
- T/C (dose: 1.56 mg/kg/injection, schedule: Q04DX003 (ip), vehicle: saline): 95 % of control
- T/C (dose: 3.12 mg/kg/injection, schedule: Q01DX009 (ip), vehicle: saline): 98 % of control
- T/C (dose: 3.12 mg/kg/injection, schedule: Q04DX003 (ip), vehicle: saline): 101 % of control
- T/C (dose: 6.25 mg/kg/injection, schedule: Q04DX003 (ip), vehicle: saline): 104 % of control

Compound: Nc1nc(=O)n(C2OC(CO)C(O)C2O)cc1Cl (stereo unspecified)
- T/C (dose: 200.0 mg/kg/injection, schedule: Q01DX005 (ip), vehicle: saline): 150 % of control
- T/C (dose: 200.0 mg/kg/injection, schedule: Q01DX009 (ip), vehicle: saline): 160 % of control
- T/C (dose: 400.0 mg/kg/injection, schedule: Q01DX009 (ip), vehicle: saline): 176 % of control

Compound: Cc1cc(OC(=O)Nc2ccccc2C)ccc1Cl
- T/C [8]: 111 % of control
- T/C [9]: 103 % of control
- T/C [10]: 118 % of control
